ChEMBL document CHEMBL4477222, “Discovery of Novel Thiophene-Based, Thumb Pocket 2 Allosteric Inhibitors of the Hepatitis C NS5B Polymerase with Improved Potency and Physicochemical Profiles” (J Med Chem, 2016)
≈ marks a conversion by molar mass, not a printed value. Calls of active or inactive are those of the source. No cut-off for these calls is given here.

Key:
[1] = target: RNA-directed RNA polymerase (Hepacivirus hominis, UniProt O39930, L419M); assay: Inhibition of HCV genotype 1a NS5B L419M mutant; parameters: species or system Hepatitis C virus subtype 1a
[2] = AUC (0 to infinity) in dog at 3 mg/kg, po; type: ADME, organism-based, Canis lupus familiaris; parameters: dose 3 mg/kg, time infinity, route oral; conditions: in vivo
[3] = target: Nonstructural protein 5A (Hepatitis C virus) (UniProt Q5L478); assay: Ratio of EC50 for HCV genotype 1b NS5A infected in human l389lucubi- neo/NS3-375.1-containing Huh7ET cells in presence of 40% human serum to EC50 for HCV genotype 1b NS5A infected in human l389lucubi- neo/NS3-375.1-containing Huh7ET cells; conditions: Hepatitis C virus subtype 1b
[4] = Cmax in dog at 3 mg/kg, po; type: ADME, organism-based, Canis lupus familiaris; parameters: dose 3 mg/kg, route oral; conditions: in vivo
Cytochrome P450 1A2 = Cytochrome P450 1A2 (Homo sapiens, UniProt P05177); assay: Induction of CYP1A2 (unknown origin) in hepatocytes; type: ADME, cell-based
[5] = Solubility of the compound in FeSSIF at pH 5.2; type: physicochemical
[6] = tested on: Nonstructural protein 5A (Hepatitis C virus), Q5L478 [UNDEFINED MUTATION]; assay: Inhibition of BMS-790052-resistant HCV genotype 1a NS5A L31V mutant; conditions: Hepatitis C virus subtype 1a
[7] = Half life in dog at 3 mg/kg, po; type: ADME, organism-based, Canis lupus familiaris; conditions: in vivo
[8] = Drug excretion in rat bile; type: ADME, tissue-based; conditions: in vivo
[9] = Metabolic stability in human liver microsomal S9 fraction assessed as compound remaining at 1 uM after 2 hrs in presence of NADPH; type: ADME, subcellular; conditions: read-out: Stability
[10] = Protein binding in human liver at 1 uM; type: ADME, tissue-based; conditions: read-out: PB (converted)
[11] = Oral bioavailability in Fischer 344 rat at 3 mg/kg; type: ADME, organism-based; conditions: in vivo
[12] = Half life in Sprague-Dawley rat at 1 mg/kg, iv through bolus administration; type: ADME, organism-based; conditions: in vivo
[13] = tested on: NS3 protease (Hepatitis C virus subtype 1b), Q0ZMF1 [A156S]; assay: Inhibition of telaprevir-resistant HCV NS3 protease A156S mutant; conditions: Hepacivirus hominis
[14] = Protein binding in dog plasma at 1 uM; type: ADME, cell-free, Canis lupus familiaris; conditions: read-out: PPB (converted)
[15] = target: RNA-directed RNA polymerase (Hepacivirus hominis, UniProt O39930, L419I); assay: Inhibition of HCV genotype 1a NS5B L419I mutant; parameters: species or system Hepatitis C virus subtype 1a
[16] = tested on: Nonstructural protein 5A (Hepatitis C virus), Q5L478 [UNDEFINED MUTATION]; assay: Inhibition of BMS-790052-resistant HCV genotype 1a NS5A Y93H mutant; conditions: Hepatitis C virus subtype 1a
[17] = tested on: Nonstructural protein 5A (Hepatitis C virus), Q5L478 [UNDEFINED MUTATION]; assay: Inhibition of BMS-790052-resistant HCV genotype 1a NS5A Y93N mutant; conditions: Hepatitis C virus subtype 1a
[18] = target: RNA-directed RNA polymerase (Hepacivirus hominis, UniProt O39930, M423I); assay: Inhibition of HCV genotype 1a NS5B M423I mutant; parameters: species or system Hepatitis C virus subtype 1a
[19] = target: CYP450 (family, isoform not stated) (Homo sapiens, UniProt P04798+P05177+P05181+P08684+P10632+P10635+P11509+P11712+P13584+P20813+P20815+P20853+P24462+P24903+P33260+P33261+P51589+P78329+P98187+Q02928+Q08477+Q16678+Q16696+Q5TCH4+Q6VVX0+Q7Z449+Q8TAV3+Q96SQ9+Q9HB55); assay: Inhibition of CYP450 (unknown origin); type: ADME, protein assay
[20] = Solubility of the compound in FaSSIF at pH 6.3; type: physicochemical
[21] = tested on: NS3 protease (Hepacivirus C), C1KIQ2 [R155T]; assay: Inhibition of telaprevir-resistant HCV NS3 protease R155T mutant; conditions: Hepacivirus hominis
[22] = Drug level in rat plasma; type: ADME, cell-free
[23] = Protein binding in rat plasma at 1 uM; type: ADME, cell-free; conditions: read-out: PPB (converted)
[24] = AUC (0 to infinity) in Sprague-Dawley rat at 1 mg/kg, iv through bolus administration; type: ADME, organism-based; parameters: dose 1 mg/kg, route intravenous, time infinity; conditions: in vivo
[25] = Cytotoxicity against human Huh7ET cells assessed as reduction in cell viability after 4 days; type: cell-based
[26] = Protein binding in rat liver at 1 uM; type: ADME, tissue-based; conditions: read-out: PB (converted)
[27] = Volume of distribution in steady state in Fischer 344 rat at 1 mg/kg, iv through bolus administration; type: ADME, organism-based; conditions: in vivo, read-out: Vdss
[28] = AUC (0 to infinity) in Sprague-Dawley rat at 3 mg/kg, po; type: ADME, organism-based; parameters: dose 3 mg/kg, route oral, time infinity; conditions: in vivo
[29] = Permeability from basolateral to apical side in human Caco2 cells; type: ADME, cell-based; conditions: Caco-2, read-out: permeability
Homo sapiens = species: Homo sapiens; assay: Inhibition of human DNA polymerase-gamma by radiometric assay
[30] = Protein binding in dog liver at 1 uM; type: ADME, tissue-based, Canis lupus familiaris; conditions: read-out: PB (converted)
Hepatocyte = assay: Change in CYP3A4 mRNA levels in hepatocytes (unknown origin); type: ADME, cell-based
[31] = Protein binding in monkey liver at 1 uM; type: ADME, tissue-based, Macaca mulatta; conditions: rhesus monkey, read-out: PB (converted)
MDR1 = assay: Efflux ratio of permeability from basolateral to apical side over apical to basolateral side in MDCK cells expressing MDR1; type: ADME, cell-based, Canis lupus familiaris; conditions: dog
[32] = Cytotoxicity against human W11.8 cells assessed as reduction in cell viability after 4 days; type: cell-based
[33] = Metabolic stability in monkey liver microsomal S9 fraction assessed as compound remaining at 1 uM after 2 hrs in presence of NADPH/UDPGA; type: ADME, subcellular, Macaca mulatta; conditions: rhesus monkey, read-out: Stability
[34] = tested on: Nonstructural protein 5A (Hepatitis C virus), Q5L478 [UNDEFINED MUTATION]; assay: Inhibition of BMS-790052-resistant HCV genotype 1a NS5A L31M mutant; conditions: Hepatitis C virus subtype 1a
[35] = target: RNA-directed RNA polymerase (Hepacivirus hominis, UniProt O39930, M423T); assay: Inhibition of HCV genotype 1a NS5B M423T mutant; parameters: species or system Hepatitis C virus subtype 1a
[36] = Metabolic stability in human hepatocytes assessed as compound remaining at 10 uM after 2 hrs; type: ADME, cell-based, Hepatocyte; conditions: read-out: Stability
[37] = Ratio of drug level in plasma to lungs in Sprague-Dawley rat at 10 mg/kg, po; type: ADME, organism-based, Lung/Plasma; conditions: in vivo
[38] = Clearance in dog at 1 mg/kg, iv through bolus administration; type: ADME, organism-based, Canis lupus familiaris; conditions: in vivo
[39] = tested on: Nonstructural protein 5A (Hepatitis C virus), Q5L478 [UNDEFINED MUTATION]; assay: Inhibition of BMS-790052-resistant HCV genotype 1b NS5A L31V mutant; conditions: Hepatitis C virus subtype 1b
[40] = target: DNA polymerase alpha catalytic subunit (Homo sapiens) (UniProt P09884); assay: Inhibition of human DNA polymerase-alpha by fluorescence/radiometric assay
[41] = target: DNA polymerase beta (Homo sapiens) (UniProt P06746); assay: Inhibition of human DNA polymerase-beta by fluorescence/radiometric assay
[42] = Oral bioavailability in Sprague-Dawley rat at 3 mg/kg; type: ADME, organism-based; conditions: in vivo
MDCK = assay: Ratio of permeability in MDCK cells expressing OATP1B1 to permeability in wild type MDCK cells; type: ADME, cell-based, Canis lupus familiaris; conditions: dog
[43] = AUC (0 to infinity) in dog at 1 mg/kg, iv through bolus administration; type: ADME, organism-based, Canis lupus familiaris; parameters: dose 1 mg/kg, route intravenous, time infinity; conditions: in vivo
[44] = tested on: Nonstructural protein 5A (Hepatitis C virus), Q5L478 [UNDEFINED MUTATION]; assay: Inhibition of BMS-790052-resistant HCV genotype 1b NS5A Y93H mutant; conditions: Hepatitis C virus subtype 1b
[45] = Clearance in Fischer 344 rat at 1 mg/kg, iv through bolus administration; type: ADME, organism-based; conditions: in vivo
[46] = Volume of distribution in steady state in monkey at 1 mg/kg, iv through bolus administration; type: ADME, organism-based, Macaca mulatta; conditions: rhesus monkey, in vivo, read-out: Vdss

Sequence of DNA polymerase alpha catalytic subunit (Homo sapiens) (P09884 whole entry): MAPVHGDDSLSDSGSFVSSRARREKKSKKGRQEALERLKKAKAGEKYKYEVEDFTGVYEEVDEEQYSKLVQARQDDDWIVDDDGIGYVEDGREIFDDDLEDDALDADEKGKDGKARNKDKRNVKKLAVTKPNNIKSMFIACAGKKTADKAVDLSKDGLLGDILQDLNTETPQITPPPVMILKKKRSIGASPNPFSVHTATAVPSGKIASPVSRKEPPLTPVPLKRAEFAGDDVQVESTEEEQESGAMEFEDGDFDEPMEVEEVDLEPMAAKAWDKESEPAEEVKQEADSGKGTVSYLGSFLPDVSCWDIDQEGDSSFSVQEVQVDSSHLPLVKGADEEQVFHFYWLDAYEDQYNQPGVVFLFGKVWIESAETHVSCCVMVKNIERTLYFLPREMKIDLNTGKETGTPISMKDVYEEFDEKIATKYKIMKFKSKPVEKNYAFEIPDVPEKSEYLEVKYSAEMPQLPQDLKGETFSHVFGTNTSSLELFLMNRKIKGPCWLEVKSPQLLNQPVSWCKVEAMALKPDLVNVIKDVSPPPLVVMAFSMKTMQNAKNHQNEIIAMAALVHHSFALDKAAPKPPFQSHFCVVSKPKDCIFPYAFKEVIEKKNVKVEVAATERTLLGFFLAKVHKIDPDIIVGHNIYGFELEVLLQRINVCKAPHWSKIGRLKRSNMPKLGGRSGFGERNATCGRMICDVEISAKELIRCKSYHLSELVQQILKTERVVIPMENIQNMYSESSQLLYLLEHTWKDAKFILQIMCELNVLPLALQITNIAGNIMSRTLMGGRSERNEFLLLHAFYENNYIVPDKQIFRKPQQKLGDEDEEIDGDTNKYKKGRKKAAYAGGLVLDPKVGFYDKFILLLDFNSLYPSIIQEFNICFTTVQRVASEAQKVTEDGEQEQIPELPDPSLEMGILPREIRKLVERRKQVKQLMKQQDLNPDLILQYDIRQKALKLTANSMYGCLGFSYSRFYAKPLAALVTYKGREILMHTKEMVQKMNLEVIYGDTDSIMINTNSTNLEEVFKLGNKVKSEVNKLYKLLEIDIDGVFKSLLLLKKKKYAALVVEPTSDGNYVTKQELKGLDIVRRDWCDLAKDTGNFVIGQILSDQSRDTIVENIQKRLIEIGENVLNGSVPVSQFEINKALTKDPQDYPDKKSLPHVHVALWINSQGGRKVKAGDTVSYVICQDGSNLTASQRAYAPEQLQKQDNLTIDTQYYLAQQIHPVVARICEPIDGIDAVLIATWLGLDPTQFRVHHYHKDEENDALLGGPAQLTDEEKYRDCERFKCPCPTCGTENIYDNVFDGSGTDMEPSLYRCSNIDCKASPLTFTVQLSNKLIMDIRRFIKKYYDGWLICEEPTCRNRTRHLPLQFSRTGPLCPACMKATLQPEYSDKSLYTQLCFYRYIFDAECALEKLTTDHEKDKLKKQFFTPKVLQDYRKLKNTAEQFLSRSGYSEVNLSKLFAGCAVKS
Sequence of Cytochrome P450 1A2 (P05177 whole entry): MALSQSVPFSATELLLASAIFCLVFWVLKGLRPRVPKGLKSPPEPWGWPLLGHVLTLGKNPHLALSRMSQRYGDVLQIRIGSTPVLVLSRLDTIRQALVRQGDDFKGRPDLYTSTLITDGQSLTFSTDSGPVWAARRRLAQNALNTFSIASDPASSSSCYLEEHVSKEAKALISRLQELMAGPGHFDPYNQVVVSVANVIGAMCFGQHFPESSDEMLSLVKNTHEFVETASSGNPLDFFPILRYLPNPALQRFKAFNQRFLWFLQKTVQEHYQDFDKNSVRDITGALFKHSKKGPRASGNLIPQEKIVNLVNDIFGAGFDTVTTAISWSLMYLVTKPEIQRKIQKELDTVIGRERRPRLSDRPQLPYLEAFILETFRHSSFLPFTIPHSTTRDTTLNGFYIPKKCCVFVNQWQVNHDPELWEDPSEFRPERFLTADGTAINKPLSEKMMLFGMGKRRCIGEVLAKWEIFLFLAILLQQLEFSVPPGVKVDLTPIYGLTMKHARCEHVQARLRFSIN

`CC(C)(C)C#Cc1cc(N(CC(=O)N2CCOCC2)C(=O)[C@H]2CC[C@H](C)CC2)c(C(=O)O)s1` gave an EC50 [1] of 240 nM, an AUC(0-inf) [2] of 2340 ng·h/mL and a Ratio EC50 [3] of 10 to 20. The Cmax [4] was 1550 ng/mL, the Activity (Cytochrome P450 1A2) was “Not Active” and the solubility [5] was 800 µg/mL (≈ 1690 µM). For the same compound, the inhibition [6] was “Active”, the half-life [7] was 6.6 h and the Drug excretion [8] was “Metabolite_Detected”. It also gave a remaining at 2 h, 1 µM [9] of 76%, a fraction unbound at 1 µM [10] of 0.153 and a bioavailability [11] of 6.5%. For the same compound, the half-life [12] was 2.35 h, the inhibition [13] was “Active” and the fraction unbound at 1 µM [14] was 0.025. The EC50 [15] was 400 nM, the inhibition [16] was “Active” and the inhibition [17] was “Active”. It also gave an EC50 [18] of 89 nM, an IC50 [19] greater than 40000 nM and a solubility [20] of 1700 µg/mL (≈ 3580 µM). For the same compound, the inhibition [21] was “Active”, the Drug uptake [22] was “Active” and the fraction unbound at 1 µM [23] was 0.003. The AUC [24] was 4270 ng·h/mL, the CC50 at 96 h [25] was greater than 20000 nM and the fraction unbound at 1 µM [26] was 0.162. For the same compound, the Vd [27] was 0.86 L/kg, the AUC(0-inf) [28] was 8860 ng·h/mL and the Papp B→A [29] was 9.8 ×10⁻⁶ cm/s. For the same compound, the inhibition (Homo sapiens) was “inactive”, the fraction unbound at 1 µM [30] was 0.14 and the Activity (Hepatocyte) was “Non-Toxic”. The fraction unbound at 1 µM [31] was 0.093, the efflux ratio (MDR1) was 9.8 and the CC50 at 96 h [32] was greater than 20000 nM. For the same compound, the remaining at 2 h, 1 µM [33] was 14%, the inhibition [34] was “Active” and the EC50 [35] was 280 nM. The remaining at 2 h, 10 µM [36] was 77%, the Ratio [37] was 10 and the clearance [38] was 10.1 mL/min/kg. The inhibition [39] was “Active”, the inhibition [40] was “inactive” and the inhibition [41] was “inactive”. The bioavailability [42] was 69%, the Ratio (MDCK) was 3 and the AUC(0-inf) [43] was 1360 ng·h/mL. The inhibition [44] was “Active”, the clearance [45] was 13.8 mL/min/kg and the Vd [46] was 0.23 L/kg.
